Values quoted from earlier work in patent EP0773217A1, “Benzothiphene derivatives for treating resistant tumors” (ELI LILLY AND COMPANY, priority 1995, dated 1997).
≈ marks a conversion by molar mass, not a printed value.

Tests used:
HL60/Adr cells = HL60/Adr cells (resistant to doxorubicin, express p190, no P-glycoprotein)
HL60/S cells = details: no P-glycoprotein expression

Structure (SMILES) | IC50 (HL60/Adr cells) | IC50 (HL60/S cells)
COc1cccc2c1C(=O)c1c(O)c3c(c(O)c1C2=O)C[C@@](O)(C(=O)CO)C[C@@H]3O[C@H]1C[C@H](N)[C@H](O)[C@H](C)O1 [ADRIAMYCIN™, Doxorubicin] | 2.2 µg/mL (≈ 4.05 µM) | 0.011 µg/mL (≈ 0.0202 µM)
COc1cc([C@@H]2c3cc4c(cc3[C@@H](O[C@@H]3O[C@@H]5CO[C@@H](C)O[C@H]5[C@H](O)[C@H]3O)[C@H]3COC(=O)[C@H]23)OCO4)cc(OC)c1O [ETOPOSIDE™, etoposide] | > 10 µg/mL | 0.39 µg/mL (≈ 0.663 µM)
